Data as given in the supplement of paper PMC10307832.

What was measured:
Assay in all cases: relative viability (nuclei count vs DMSO), 5 days (fraction); higher = more cells survive
Metformin + Linsitinib = compound: CN(C)C(=N)NC(=N)N [Metformin] + C[C@]1(O)C[C@@H](c2nc(-c3ccc4ccc(-c5ccccc5)nc4c3)c3c(N)nccn32)C1 [Linsitinib] (partner 1 µM)
Summary of the method: (§1)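 Lung cancer cell lines in 1536-well plates were dosed by pin tool the day after seeding, either with one drug alone or with a fixed anchor-drug dose plus five library-drug doses (not always all listed) in √10 steps. After 5 days, cells were fixed and their nuclei stained in one step (final 0.05% Triton X-100, 1% formaldehyde, 1 ug/ml Hoechst), then counted on 4× images. Relative viability is the nuclei count in treated wells divided by that in vehicle wells. Values are medians of duplicate plates.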

Apatinib + Crizotinib = compound: N#CC1(c2ccc(NC(=O)c3cccnc3NCc3ccncc3)cc2)CCCC1 [Apatinib] + C[C@@H](Oc1cc(-c2cnn(C3CCNCC3)c2)cnc1N)c1c(Cl)ccc(F)c1Cl [Crizotinib] (partner 1 µM)
Summary of the method: as §1

Apatinib + Pemetrexed = compound: N#CC1(c2ccc(NC(=O)c3cccnc3NCc3ccncc3)cc2)CCCC1 [Apatinib] + Nc1nc2[nH]cc(CCc3ccc(C(=O)N[C@@H](CCC(=O)O)C(=O)O)cc3)c2c(=O)[nH]1 [Pemetrexed] (partner 0.2 µM)
Summary of the method: as §1

Apatinib + Olaparib = compound: N#CC1(c2ccc(NC(=O)c3cccnc3NCc3ccncc3)cc2)CCCC1 [Apatinib] + O=C(c1cc(Cc2n[nH]c(=O)c3ccccc23)ccc1F)N1CCN(C(=O)C2CC2)CC1 [Olaparib] (partner 8 µM)
Summary of the method: as §1

Cell Line	relative viability (Metformin + Linsitinib; first compound 10 µM)	relative viability (Metformin + Linsitinib; first compound 31.62 µM)	relative viability (Metformin + Linsitinib; first compound 100 µM)	relative viability (Metformin + Linsitinib; first compound 316.23 µM)	relative viability (Metformin + Linsitinib; first compound 1000 µM)	relative viability (Apatinib + Crizotinib; first compound 0.08 µM)	relative viability (Apatinib + Crizotinib; first compound 0.253 µM)	relative viability (Apatinib + Crizotinib; first compound 0.8 µM)	relative viability (Apatinib + Crizotinib; first compound 2.53 µM)	relative viability (Apatinib + Crizotinib; first compound 8 µM)	relative viability (Apatinib + Pemetrexed; first compound 0.08 µM)	relative viability (Apatinib + Pemetrexed; first compound 0.253 µM)	relative viability (Apatinib + Pemetrexed; first compound 0.8 µM)	relative viability (Apatinib + Pemetrexed; first compound 8 µM)	relative viability (Apatinib + Olaparib; first compound 0.08 µM)	relative viability (Apatinib + Olaparib; first compound 0.253 µM)	relative viability (Apatinib + Olaparib; first compound 0.8 µM)	relative viability (Apatinib + Olaparib; first compound 8 µM)	relative viability (Apatinib + Pemetrexed; first compound 2.53 µM)	relative viability (Apatinib + Olaparib; first compound 2.53 µM)
HARA	1.14	1.07	1.2	0.872	1.06	1.04	0.944	1.05	1.05	0.806	0.246	0.227	0.21	0.173	0.761	0.582	0.848	0.706		
201T		1.12	1.1	1.07	1.06	1.02	1.04	0.996	1.03	0.992	0.325	0.37	0.297	0.316	0.872	0.817	0.789	0.749	0.334	0.9
NCI-H2009	1.22	1.17	1.17	0.781	0.9	1.05	1.1	1.02	0.814	0.698	1.07	0.996	0.902	0.661	0.722	0.651	0.64	0.443	0.879	0.431
HCC-78	0.842	0.927	0.877	0.681	0.927	0.328	0.325	0.326	0.347	0.346	0.871	0.934	0.854	0.909	0.803	0.696	0.878	0.768	0.588	0.711
LCLC-97TM1	0.175	0.17	0.146	0.187	0.243	0.449	0.409	0.372	0.264	0.161	0.179	0.139	0.161	0.146	0.524	0.541	0.353	0.172	0.141	0.351
NCI-H661	0.761	0.966	0.812	0.767	0.677	1.02	1.03	1.02	0.934	0.916	0.933	0.853	0.911	0.892	0.719	0.726	0.724	0.641	0.917	0.687
NCI-H650	0.859	0.955	0.845	0.983	1.3	0.664	0.843	0.676	0.562	0.43	1.02	0.924	0.89	0.597	0.35	0.458	0.439	0.334	0.799	0.365
IA-LM	0.119	0.729	0.611	0.404	0.78	0.857	0.615	0.697	0.694	0.192					0.765	0.766	0.769	0.396		0.607
ABC-1		0.675	0.971	0.307	0.325		1.42	1.11	0.932	0.614						0.957	0.626	0.638		0.769
ChaGo-K-1							1.09	1.1	1.05	0.901	0.27	0.249	0.263	0.245	0.47	0.523	0.443	0.344	0.24	0.408
NCI-H1648											0.681	0.613	0.706	0.691	0.934	0.854	0.761	0.433	0.548	0.501
NCI-H1563	1.22	1.34	1.19	0.955	0.893	0.824	0.848	0.864	0.851	0.797	0.622	0.765	0.795	0.681					0.708	
NCI-H1703	1.41	0.892	0.832	0.485	0.599	0.359	0.464	0.347	0.194	0.15					0.512	0.21	0.173	0.138		0.159
NCI-H1299	1.03	1.04	1	0.958	0.974	0.998	0.974	0.517	0.961	0.77					1.03	1.01	0.927	0.638		0.873
NCI-H522											0.986	0.975	0.993	0.748	0.667	0.644	0.615	0.584	0.66	0.692
NCI-H2170						1.23	1.22	1.11	1.12	1.07	0.288	0.275	0.262	0.251	0.617	0.623	0.638	0.485	0.224	0.49
NCI-H2342											0.731	0.73	0.744	0.737	0.419	0.477	0.457	0.368	0.733	0.438
A549	0.647	0.789	0.85	0.631	0.711	0.818	0.917	0.737	0.61	0.56					0.329	0.382	0.414	0.302		0.367
NCI-H1793	1.3	1.22	1.14	1	1.16						1.1	0.932	0.871	0.633	0.959	0.897	0.813	0.555	0.726	0.798
NCI-H727	0.289	0.342	0.304	0.298	0.35	0.756	0.693	0.719	0.679	0.583					0.812		0.725	0.718		0.622
